Where “and” joins values, the source holds several entries; their conditions need not be identical. Equal values may be shown once.

Our source for the IC50 values is BindingDB's records for patent WO2022098806 (MERCK SHARP & DOHME LLC, 2022).

Sequence of Mitogen-activated protein kinase kinase kinase kinase 1 (Q92918 whole entry): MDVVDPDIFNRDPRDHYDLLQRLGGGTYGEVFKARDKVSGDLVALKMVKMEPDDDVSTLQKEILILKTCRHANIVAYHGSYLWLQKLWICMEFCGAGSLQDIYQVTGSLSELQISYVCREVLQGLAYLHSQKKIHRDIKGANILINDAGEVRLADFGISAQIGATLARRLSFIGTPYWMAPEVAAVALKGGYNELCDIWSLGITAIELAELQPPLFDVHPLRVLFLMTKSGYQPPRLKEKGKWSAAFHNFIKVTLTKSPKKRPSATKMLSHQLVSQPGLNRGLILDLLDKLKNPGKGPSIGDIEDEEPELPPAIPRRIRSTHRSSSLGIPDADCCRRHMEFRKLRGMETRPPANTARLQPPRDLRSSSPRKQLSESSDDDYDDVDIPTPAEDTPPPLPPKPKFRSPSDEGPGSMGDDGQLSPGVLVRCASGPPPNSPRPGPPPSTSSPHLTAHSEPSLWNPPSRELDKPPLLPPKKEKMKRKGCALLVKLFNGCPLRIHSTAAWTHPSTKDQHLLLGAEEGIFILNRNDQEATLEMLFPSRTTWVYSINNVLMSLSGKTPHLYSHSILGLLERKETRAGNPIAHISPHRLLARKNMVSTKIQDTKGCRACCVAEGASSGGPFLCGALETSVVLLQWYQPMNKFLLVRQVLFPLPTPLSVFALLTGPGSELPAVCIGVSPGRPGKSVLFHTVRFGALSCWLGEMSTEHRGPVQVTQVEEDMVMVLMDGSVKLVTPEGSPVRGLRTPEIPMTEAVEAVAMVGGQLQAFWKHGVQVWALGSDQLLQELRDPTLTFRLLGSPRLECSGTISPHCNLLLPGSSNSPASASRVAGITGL

This test addresses Mitogen-activated protein kinase kinase kinase kinase 1 (Homo sapiens, UniProt Q92918). Kind of test: HPK1-SLP76 TR-FRET ASSAY. (TR-FRET usually uses a lanthanide donor and a delayed reading to cut background.)
The molecule `Cc1c(-c2cc3nc(Nc4ccc(CS(=O)(=O)C(C)C)cc4)ncc3c(N)c2F)cnc2c1NCCO2` [WO2022098806, Compound 2-157] came in with an IC50 of 0.07 nM.

Regarding `Cc1c(-c2cc3nc(Nc4ccc5c(c4)CCN(C)C5)ncc3c(N)c2F)cnc2c1NCCO2` [WO2022098806, Compound 2-158], the IC50 was 0.03 nM.

Molecule `Cc1c(-c2c(F)c(N)c3cnc(Nc4ccc(N5CCOC5=O)cc4)nc3c2Cl)cnc2c1NCCO2` [WO2022098806, Compound 2-159] displayed an IC50 of 0.24 nM.

Molecule `Cc1c(-c2cc3nc(Nc4ccc5c(c4)CN(C)CC5)ncc3c(N)c2F)cnc2nc[nH]c12` [WO2022098806, Compound 2-162] had an IC50 of 0.13 nM.

The molecule `Cc1c(-c2cc3nc(Nc4ccc(CS(C)(=O)=O)cc4)ncc3c(N)c2F)cnc2c1NCC(C)(C)O2` [WO2022098806, Compound 2-165] came in with a concentration for half-maximal inhibition (IC50) of 0.1 nM.

The molecule `Cc1c(-c2cc3nc(Nc4ccc5c(c4)CN(C)CC5)ncc3c(N)c2F)cnc2c1NCC(C)(C)O2` [WO2022098806, Compound 2-166] had an IC50 of 0.06 nM.

As to `COc1cc(CS(=O)(=O)C(C)C)ccc1Nc1ncc2c(N)c(F)c(-c3cnc4c(c3C)NCC(C)(C)O4)cc2n1` [WO2022098806, Compound 2-168], the midpoint of inhibition, the IC50, lay at 0.1 nM.

As for `COc1cc2c(cc1Nc1ncc3c(N)c(F)c(-c4cnc5c(c4C)NCCO5)c(Cl)c3n1)CN(C)CC21CC1` [WO2022098806, Compound 2-169], the IC50 was 0.06 nM.

The molecule `Cc1c(-c2cc3nc(Nc4ccc([S+](C)[O-])cc4)ncc3c(N)c2F)cnc2c1NCCO2` (stereo not given) [WO2022098806, Compound 2-170] displayed an IC50 of 0.04 nM.

In the case of `Cc1c(-c2cc3nc(Nc4cc5c(cc4F)CCN(C(C)C)C5)ncc3c(N)c2F)cnc2c1NCCO2` [WO2022098806, Compound 2-171], the IC50 came out at 0.05 nM.

With `Cc1ccc(F)cc1-c1cc2nc(Nc3ccc(CS(C)(=O)=O)cc3)ncc2c(N)c1F` [WO2022098806, Compound 2-172], inhibition was half-maximal at 25 nM (IC50).

`CCc1ccc(Nc2ncc3c(N)c(F)c(-c4cnc5c(c4C)NCCO5)cc3n2)cn1` [WO2022098806, Compound 2-173] had an IC50 of 0.13 nM.

Take `Cc1ccc(F)cc1-c1cc2nc(Nc3ccc4c(c3)CN(C)CC4)ncc2c(N)c1F` [WO2022098806, Compound 2-174]: the IC50 turned out to be 11 nM.

Molecule `COc1cc(C2CC2)ccc1Nc1ncc2c(N)c(F)c(-c3cnc4c(c3C)NCCO4)cc2n1` [WO2022098806, Compound 2-176] showed an IC50 of 17 nM.

In turn, `Cc1c(-c2cc3nc(Nc4ccc(CC(C)(C)O)cc4)ncc3c(N)c2F)cnc2c1NCCO2` [WO2022098806, Compound 2-178] yielded a 50% inhibitory concentration (IC50) of 0.09 nM.

Turning to `Cc1c(-c2c(F)c(N)c3cnc(Nc4ccc5c(c4)CN(C)CC5)nc3c2Cl)cnc2c1NCCO2` [WO2022098806, Compound 2-180], the IC50 was 0.06 nM and 0.02 nM.

In turn, `Cc1c(-c2cc3nc(Nc4cnc5c(c4)CN(C)CC5)ncc3c(N)c2F)cnc2c1NCCO2` [WO2022098806, Compound 2-183] registered an IC50 of 0.04 nM.

As for `Cc1c(-c2c(F)c(N)c3cnc(Nc4cc5c(cc4F)CCN(C)C5)nc3c2Cl)cnc2c1NCCO2` [WO2022098806, Compound 2-184], the midpoint of inhibition, the IC50, lay at 0.09 nM.

For `CNC(=O)C(F)(F)c1ccc(Nc2ncc3c(N)c(F)c(-c4cnc5c(c4C)NCCO5)cc3n2)cc1` [WO2022098806, Compound 2-186], the IC50 is 0.14 nM.

Regarding `CNC(=O)C(C)(C)c1ccc(Nc2ncc3c(N)c(F)c(-c4cnc5c(c4C)NCCO5)cc3n2)cc1` [WO2022098806, Compound 2-187], the IC50 came out at 0.08 nM.

Take `COc1cc2c(cc1Nc1ncc3ccc(N4CC5(CCOC5)OC4=O)cc3n1)CN(C)CC2` (stereo not given) [WO2022098806, Compound 3-3]: 391 nM corresponded to half-maximal inhibition (IC50).

Take `COc1cc2c(cc1Nc1ncc3ccc(N4CC(CO)OC4=O)cc3n1)CN(C)CC2` (stereo not given) [WO2022098806, Compound 3-4]: the IC50 was 9.36 nM.

For the molecule `COc1cc2c(cc1Nc1ncc3ccc(N4CC5(CCCNCC5)OC4=O)cc3n1)CN(C)CC2` (stereo not given) [WO2022098806, Compound 3-5], the half-maximal inhibitory concentration (IC50) is 205 nM and 93 nM.

Take `COc1cc2c(cc1Nc1ncc3ccc(N4CC(C)(CO)OC4=O)cc3n1)CN(C)CC2` (stereo not given) [WO2022098806, Compound 3-7]: half-maximal inhibition (IC50) required 45 nM.

In turn, `COc1cc2c(cc1Nc1ncc3ccc(N4CC(CN)OC4=O)cc3n1)CN(C)CC2` (stereo not given) [WO2022098806, Compound 3-11] showed an IC50 of 82 nM.

As for `CNCC1CN(c2ccc3cnc(Nc4cc5c(cc4OC)CCN(C)C5)nc3c2)C(=O)O1` (stereo not given) [WO2022098806, Compound 3-12], the IC50 came out at 94 nM.

`CC[C@@H]1COC(=O)N1c1ccc2cnc(Nc3cc4c(cc3OC)CCN(C)C4)nc2c1` [WO2022098806, Compound 3-13] registered an IC50 of 1.05 nM.

On to `CC[C@H]1COC(=O)N1c1ccc2cnc(Nc3cc4c(cc3OC)CCN(C)C4)nc2c1` [WO2022098806, Compound 3-14], for which the IC50 was 25 nM.

The molecule `CC[C@@H]1COC(=O)N1c1cc(N)c2cnc(Nc3cc4c(cc3OC)CCN(C)C4)nc2c1` [WO2022098806, Compound 3-15] gave a half-maximal inhibitory concentration (IC50) of 3.24 nM.

Molecule `CC[C@H]1COC(=O)N1c1cc(N)c2cnc(Nc3cc4c(cc3OC)CCN(C)C4)nc2c1` [WO2022098806, Compound 3-16] had a half-inhibitory concentration (IC50) of 0.17 nM.

As for `COc1cc2c(cc1Nc1ncc3c(N)cc(N4C(=O)OC[C@@H]4C)cc3n1)CN(C)CC2` [WO2022098806, Compound 3-17], half-maximal inhibition (IC50) required 0.08 nM.

In turn, `COc1cc2c(cc1Nc1ncc3ccc(N4CCCC(CN5CCCC5=O)C4)cc3n1)CN(C)CC2` (stereo not given) [WO2022098806, Compound 3-20] gave an IC50 of 771 nM.

Regarding `COc1cc2c(cc1Nc1ncc3ccc(Nc4ccc5c(c4)C(=O)NCC5)cc3n1)CN(C)CC2` [WO2022098806, Compound 3-21], the IC50 came out at 30 nM.

As to `COc1cc2c(cc1Nc1ncc3ccc(NCC4CNC(=O)O4)cc3n1)CN(C)CC2` (stereo not given) [WO2022098806, Compound 3-26], the IC50 stood at 149 nM.

The molecule `COc1cc2c(cc1Nc1ncc3ccc(Nc4cccc(C#N)n4)cc3n1)CN(C)CC2` [WO2022098806, Compound 3-27] came in with an IC50 of 23 nM.

`COc1cc2c(cc1Nc1ncc3ccc(Nc4cccc(CO)n4)cc3n1)CN(C)CC2` [WO2022098806, Compound 3-29] gave an IC50 of 21 nM.

Consider `COc1cc2c(cc1Nc1ncc3ccc(N(C)CC4CNC(=O)O4)cc3n1)CN(C)CC2` (stereo not given) [WO2022098806, Compound 3-30], for which 148 nM corresponded to half-maximal inhibition (IC50).

The molecule `COc1cc2c(cc1Nc1ncc3ccc(Nc4cccc(CO)c4)cc3n1)CN(C)CC2` [WO2022098806, Compound 3-31] had an IC50 of 29 nM.

In turn, `COc1cc2c(cc1Nc1ncc3ccc(Nc4cccc(S(C)(=O)=O)c4)cc3n1)CN(C)CC2` [WO2022098806, Compound 3-33] had an IC50 of 18 nM.

`COc1cc2c(cc1Nc1ncc3ccc(Nc4nc(S(C)(=O)=O)ccc4F)cc3n1)CN(C)CC2` [WO2022098806, Compound 3-36] returned an IC50 of 4.18 nM.

As to `COc1cc2c(cc1Nc1ncc3ccc(NCC4CCS(=O)(=O)C4)cc3n1)CN(C)CC2` (stereo not given) [WO2022098806, Compound 3-37], the IC50 is 73 nM.

For `COc1cc2c(cc1Nc1ncc3ccc(NC4CCCC(O)C4)cc3n1)CN(C)CC2` (stereo not given) [WO2022098806, Compound 3-39], 228 nM corresponded to half-maximal inhibition (IC50).

Regarding `COc1cc2c(cc1Nc1ncc3ccc(NCC4CCC(=O)N4)cc3n1)CN(C)CC2` (stereo not given) [WO2022098806, Compound 3-45], the IC50 is 292 nM.

For `COc1cc2c(cc1Nc1ncc3ccc(NC4CCN(C)C4=O)cc3n1)CN(C)CC2` (stereo not given) [WO2022098806, Compound 3-49], the IC50 was 97 nM and 98 nM.

Consider `COc1cc2c(cc1Nc1ncc3ccc(N4CC(O)(C(F)(F)F)C4)cc3n1)CN(C)CC2` [WO2022098806, Compound 3-54], for which the IC50 amounted to 189 nM.

For the molecule `COc1cc2c(cc1Nc1ncc3ccc(NC[C@@H]4CC(=O)N(C)C4)cc3n1)CN(C)CC2` [WO2022098806, Compound 3-59], the IC50 is 365 nM.

Consider `COc1cc2c(cc1Nc1ncc3ccc(N4CC5CCS(=O)(=O)C5C4)cc3n1)CN(C)CC2` (stereo not given) [WO2022098806, Compound 3-60], for which 807 nM corresponded to half-maximal inhibition (IC50).

In the case of `COc1cc2c(cc1Nc1ncc3ccc(NCC4(C)CCC4)cc3n1)CN(C)CC2` [WO2022098806, Compound 3-62], the IC50 was found to be 111 nM.

`COc1cc2c(cc1Nc1ncc3ccc(NCC4(C)CCOC4)cc3n1)CN(C)CC2` (stereo not given) [WO2022098806, Compound 3-75] yielded an IC50 of 90 nM.

In the case of `COc1cc(S(C)(=O)=O)ccc1Nc1ncc2c(N)cc(N3C(=O)OC[C@H]3C)cc2n1` [WO2022098806, Compound 3-76], the IC50 is 0.1 nM.

`CNC(=O)c1ccc(Nc2ncc3c(N)cc(N4C(=O)OC[C@@H]4C)cc3n2)c(OC)c1` [WO2022098806, Compound 3-79] showed an IC50 of 0.25 nM.

Regarding `COc1cc2c(cc1Nc1ncc3c(N)cc(Nc4cc(CO)ccn4)cc3n1)CN(C)CC2` [WO2022098806, Compound 3-80], the IC50 was found to be 2.81 nM.

Turning to `COc1cc2c(cc1Nc1ncc3ccc(OCc4ccc(N5CCNCC5)nc4)cc3n1)CN(C)CC2` [WO2022098806, Compound 4-1], half-maximal inhibition (IC50) was put at 15 nM.

The molecule `COc1cc2c(cc1Nc1ncc3ccc(Oc4ccc(C(=O)N5CCN(C(C)=O)CC5)cc4)cc3n1)CN(C)CC2` [WO2022098806, Compound 4-7] returned an IC50 of 224 nM.

`COc1cc2c(cc1Nc1ncc3ccc(Oc4ccc5c(c4)CNCC5)cc3n1)CN(C)CC2` [WO2022098806, Compound 4-9] displayed a 50% inhibitory concentration (IC50) of 2.19 nM.

In general, IC50 refers to the concentration that inhibits the measured activity by half.
